Data taken from patent publication US9023789B2, “Amylin analogs and pharmaceutical compositions thereof” (Novo Nordisk A/S, priority 2012, dated 2015).
Values after ≈ are worked out from the molar mass of the structure shown. Like-named read-outs stand apart in the source and are kept apart here. Numbered stars: 1 amine (or outer) side, 2 acyl side, 3 side chain; on linkers, the order of the positions; unused ones are H or OH. Bridge positions count the residues as written; N and C are the ends. Side chains are listed from the residue outwards. Peptide text beside a SMILES is read from it. * marks the point of attachment. C20 diacid = O=C(O)CCCCCCCCCCCCCCCCCCC(=O)*; γGlu = O=C(O)[C@H](CCC(=O)[*:2])N[*:1]

Assays:
rat calcitonin receptor = molecular target: T1, rat calcitonin receptor (Rattus norvegicus, UniProt P32214); assay: ASSAY (VIII) binding to the rat calcitonin receptor; conditions: Table 7, read-out: rCTR bind IC50
T1 construct: expressed in transfected cells; host or cells: BHK tk'ts 13 (transient, FuGENE 6), membranes
T1 sequence (P32214 25-479 isoform P32214-2 limits assumed): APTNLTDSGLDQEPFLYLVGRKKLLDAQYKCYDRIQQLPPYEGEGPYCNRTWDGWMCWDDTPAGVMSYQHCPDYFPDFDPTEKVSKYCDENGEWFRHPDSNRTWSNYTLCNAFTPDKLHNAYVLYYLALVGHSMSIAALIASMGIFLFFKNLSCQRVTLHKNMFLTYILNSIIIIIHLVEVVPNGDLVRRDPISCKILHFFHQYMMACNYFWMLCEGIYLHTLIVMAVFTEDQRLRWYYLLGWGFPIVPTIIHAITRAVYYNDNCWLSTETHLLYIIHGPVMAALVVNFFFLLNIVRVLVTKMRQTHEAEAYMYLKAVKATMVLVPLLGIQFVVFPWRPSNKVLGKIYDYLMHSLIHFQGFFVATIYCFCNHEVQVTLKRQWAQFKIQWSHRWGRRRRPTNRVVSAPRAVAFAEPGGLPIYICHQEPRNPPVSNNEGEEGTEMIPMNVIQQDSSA
In short: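 Cell membranes for binding came from BHK tk′ts 13 cells harvested approximately 48 hours after transient transfection with the rat receptor.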

[1] = molecular target: T2, rat amylin receptor (rat calcitonin receptor + rat RAMP 3) (Rattus norvegicus, UniProt P32214+Q9JJ73); assay: ASSAY (VI) binding to the rat amylin receptor
T2 construct: expressed in transfected cells; host or cells: BHK tk'ts 13 (transient, FuGENE 6), membranes
T2 sequence (P32214 25-479 isoform P32214-2 limits assumed): T1 sequence (P32214 25-479 isoform P32214-2 limits assumed)
T2 sequence (Q9JJ73 23-147 partner): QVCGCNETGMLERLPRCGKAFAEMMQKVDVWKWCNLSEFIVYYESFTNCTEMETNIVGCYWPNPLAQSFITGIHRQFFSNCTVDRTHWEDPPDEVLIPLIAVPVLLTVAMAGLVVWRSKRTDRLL
In short: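 The cell-membrane assay assessed binding at the rat amylin receptor. BHK tk′ts 13 cells were transfected transiently with rat calcitonin receptor, with FuGENE® 6 (Roche) as the transfection reagent, used per the manufacturer's recommendations. Approximately 48 hours after transfection the cells were harvested, and membranes were prepared for measuring binding.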

[2] = molecular target: T3, human amylin receptor (membranes from Amylin 3(a)/CRE-luc cells) (Homo sapiens, UniProt O60896+P30988); assay: ASSAY (V) binding to the human amylin receptor (SPA, 125I-rat amylin);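 further: competition binding of cell membranes (35 ng/µL) mixed with SPA beads in 384-well plates at 40 µL total volume, read by scintillation counting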
T3 construct: expressed in transfected cells
T3 sequence (P30988 25-474): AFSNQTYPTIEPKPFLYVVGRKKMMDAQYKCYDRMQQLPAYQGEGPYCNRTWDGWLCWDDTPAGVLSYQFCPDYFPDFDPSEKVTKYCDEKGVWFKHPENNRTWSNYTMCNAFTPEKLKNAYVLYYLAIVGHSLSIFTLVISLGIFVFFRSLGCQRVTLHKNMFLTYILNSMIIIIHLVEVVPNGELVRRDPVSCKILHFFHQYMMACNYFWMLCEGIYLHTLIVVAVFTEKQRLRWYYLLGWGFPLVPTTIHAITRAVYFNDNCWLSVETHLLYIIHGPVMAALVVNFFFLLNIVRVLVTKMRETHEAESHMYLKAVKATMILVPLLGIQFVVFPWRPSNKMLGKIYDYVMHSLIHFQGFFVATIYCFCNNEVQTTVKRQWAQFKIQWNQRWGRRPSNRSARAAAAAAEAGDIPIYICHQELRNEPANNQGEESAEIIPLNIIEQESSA
T3 sequence (O60896 24-148 partner): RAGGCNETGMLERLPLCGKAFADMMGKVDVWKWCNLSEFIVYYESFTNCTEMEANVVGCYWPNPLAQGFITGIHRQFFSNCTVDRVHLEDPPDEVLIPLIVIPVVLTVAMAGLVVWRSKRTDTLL

[3] = ASSAY (IV) determination of solubility; format: physicochemical
In short: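 Samples of polypeptide, prepared from a water stock at […] and diluted 1:1 into 100 mM buffers spanning pH 3.0 to 8.0, stood 18 hours at room temperature. Polypeptide concentration was then determined by UPLC following centrifugation.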

[4] = Table 7, binding to rat amylin receptor, read-out: rAmylin-R bind IC50
[5] = Table 7, rat binding selectivity, rCTR IC50 / rAmylin-R IC50
[6] = Table 7a (preferred compounds), rat binding selectivity, rCTR IC50 / rAmylin-R IC50
[7] = Table 4, read-out: hAmylin-R bind IC50
[8] = Table 5, selectivity, hCTR bind IC50 / hAmylin-R bind IC50
[9] = Table 7, human binding selectivity, included for comparison
[10] = Table 7a (preferred compounds), human binding selectivity, included for comparison
[11] = bistrispropane buffer, pH 6.5, read-out: Solubility pH 6.5 Concentration
[12] = bistrispropane buffer, pH 7.5, read-out: Solubility pH 7.5 Concentration
[13] = bistrispropane buffer, pH 6.0, read-out: Solubility pH 6.0 Concentration
[14] = bistrispropane buffer, pH 7.0, read-out: Solubility pH 7.0 Concentration
[15] = bistrispropane buffer, pH 8.0, read-out: Solubility pH 8.0 Concentration
[16] = glycylglycine buffer, pH 3.0, read-out: Solubility pH 3.0 Concentration
[17] = glycylglycine buffer, pH 4.0, read-out: Solubility pH 4.0 Concentration
[18] = glycylglycine buffer, pH 5.0, read-out: Solubility pH 5.0 Concentration
[19] = ratio of rCTR bind IC50 to rAmylin-R bind IC50
[20] = Table 5a, selectivity, hCTR bind IC50 / hAmylin-R bind IC50
[21] = Table 5b, selectivity, hCTR bind IC50 / hAmylin-R bind IC50
[22] = ratio of human calcitonin receptor binding IC50 to human amylin receptor binding IC50

Structure (SMILES) | IC50 (rat calcitonin receptor) | IC50 [1, 4] | Ratio rCT/rAmylin binding [1, 5] | Ratio rCT/rAmylin binding [1, 6] | IC50 [2, 7] | Ratio hCT/hAmylin binding [2, 8] | Ratio hCT/hAmylin binding [2, 9] | Ratio hCT/hAmylin binding [2, 10] | solubility at 18 h [3, 11] | solubility at 18 h [3, 12] | solubility at 18 h [3, 13] | solubility at 18 h [3, 14] | solubility at 18 h [3, 15] | solubility at 18 h [3, 16] | solubility at 18 h [3, 17] | solubility at 18 h [3, 18] | Ratio rCT/rAmylin binding [1, 19] | Ratio hCT/hAmylin binding [2, 20] | Ratio hCT/hAmylin binding [2, 21] | Ratio hCT/hAmylin binding [2, 22] | other results
CC[C@H](C)[C@H](NC(=O)[C@H](C)NC(=O)CNC(=O)[C@H](Cc1ccccc1)NC(=O)[C@H](CC(N)=O)NC(=O)[C@@H]1CCCN1C(=O)[C@H](CO)NC(=O)[C@H](CO)NC(=O)[C@H](Cc1c[nH]cn1)NC(=O)[C@H](CCCNC(=N)N)NC(=O)[C@H](CC(C)C)NC(=O)[C@H](Cc1ccccc1)NC(=O)[C@H](CCC(=O)O)NC(=O)[C@H](C)NC(=O)[C@H](CC(C)C)NC(=O)[C@H](CCCNC(=N)N)NC(=O)[C@H](CCC(N)=O)NC(=O)[C@@H](NC(=O)[C@H](C)NC(=O)[C@@H]1CSSC[C@H](NC(=O)[C@H](CCCCN)NC(=O)CC[C@H](NC(=O)CCCCCCCCCCCCCCCCCCC(=O)O)C(=O)O)C(=O)N[C@@H](CC(N)=O)C(=O)N[C@@H]([C@@H](C)O)C(=O)N[C@@H](C)C(=O)N[C@@H]([C@@H](C)O)C(=O)N1)[C@@H](C)O)C(=O)N[C@@H](CC(C)C)C(=O)N1CCC[C@H]1C(=O)N[C@@H](CO)C(=O)N[C@H](C(=O)N[C@@H](CC(N)=O)C(=O)N[C@H](C(=O)NCC(=O)N[C@@H](CO)C(=O)N[C@@H](CCC(=O)O)C(=O)N[C@H](C(=O)N[C@@H](Cc1ccc(O)cc1)C(N)=O)[C@@H](C)O)C(C)C)[C@@H](C)O [Example 33] ({C20 diacid-γGlu}-KCNTATCATQRLAEFLRHSSPNFGAILPSTNVGSETY-NH2; disulfide 2-7) | 28900 pM | 2300 pM | 12.6 | 12.6 | 915 pM | 3.9 | 3.9 | 3.9 | ≥ 200 µM | ≥ 200 µM | ≥ 200 µM | ≥ 200 µM | ≥ 200 µM | ≥ 200 µM | ≥ 200 µM | ≥ 200 µM |  |  |  |  | 
CC[C@H](C)[C@H](NC(=O)[C@H](C)NC(=O)CNC(=O)[C@H](Cc1ccccc1)NC(=O)[C@H](CC(N)=O)NC(=O)[C@@H]1CCCN1C(=O)[C@H](CO)NC(=O)[C@H](CO)NC(=O)[C@H](Cc1c[nH]cn1)NC(=O)[C@H](CCCNC(=N)N)NC(=O)[C@H](CC(C)C)NC(=O)[C@H](Cc1ccccc1)NC(=O)[C@H](C)NC(=O)[C@H](C)NC(=O)[C@H](CC(C)C)NC(=O)[C@H](CCCNC(=N)N)NC(=O)[C@H](CCC(N)=O)NC(=O)[C@@H](NC(=O)[C@H](C)NC(=O)[C@@H]1CSSC[C@H](NC(=O)[C@H](CCCNC(=N)N)NC(=O)CNC(=O)CC[C@H](NC(=O)CCCCCCCCCCCCCCCCCCC(=O)O)C(=O)O)C(=O)N[C@@H](CC(N)=O)C(=O)N[C@@H]([C@@H](C)O)C(=O)N[C@@H](C)C(=O)N[C@@H]([C@@H](C)O)C(=O)N1)[C@@H](C)O)C(=O)N1CCC[C@H]1C(=O)N[C@@H](CO)C(=O)N[C@@H](CO)C(=O)N[C@H](C(=O)N[C@@H](CC(N)=O)C(=O)N[C@H](C(=O)NCC(=O)N1CCC[C@H]1C(=O)N[C@@H](CC(N)=O)C(=O)N[C@H](C(=O)N[C@@H](Cc1ccc(O)cc1)C(N)=O)[C@@H](C)O)C(C)C)[C@@H](C)O [Example 103] ({C20 diacid-γGlu}-GRCNTATCATQRLAAFLRHSSPNFGAIPSSTNVGPNTY-NH2; disulfide 3-8) | 56300 pM |  | 129.1 | 129.1 |  | 26.5 | 26.5 | 26.5 |  |  |  |  |  |  |  |  | 129.1 | 26.5 | 26.5 | 26.5 | IC50 [1]: 436 pM; IC50 [2]: 114 pM; Ratio hCT/hAmylin binding ([2]; Table 5c, selectivity, hCTR bind IC50 / hAmylin-R bind IC50): 26.5; solubility at 18 h ([3]; pH 3.0, read-out: Solubility pH 3.0 Concentration): ≥ 200 µM; solubility at 18 h ([3]; pH 4.0, read-out: Solubility pH 4.0 Concentration): ≥ 200 µM; solubility at 18 h ([3]; pH 5.0, read-out: Solubility pH 5.0 Concentration): ≥ 200 µM; solubility at 18 h ([3]; pH 6.0, read-out: Solubility pH 6.0 Concentration): ≥ 200 µM; solubility at 18 h ([3]; pH 6.5, read-out: Solubility pH 6.5 Concentration): ≥ 200 µM; solubility at 18 h ([3]; pH 7.0, read-out: Solubility pH 7.0 Concentration): ≥ 200 µM; solubility at 18 h ([3]; pH 7.5, read-out: Solubility pH 7.5 Concentration): 141 µM (≈ 625 µg/mL); solubility at 18 h ([3]; pH 8.0, read-out: Solubility pH 8.0 Concentration): 194 µM (≈ 860 µg/mL)
CC[C@H](C)[C@H](NC(=O)[C@H](C)NC(=O)CNC(=O)[C@H](Cc1ccccc1)NC(=O)[C@H](CC(N)=O)NC(=O)[C@@H]1CCCN1C(=O)[C@H](CO)NC(=O)[C@H](CO)NC(=O)[C@H](Cc1c[nH]cn1)NC(=O)[C@H](CCCNC(=N)N)NC(=O)[C@H](CC(C)C)NC(=O)[C@H](Cc1ccccc1)NC(=O)[C@H](CC(=O)O)NC(=O)[C@H](C)NC(=O)[C@H](CC(C)C)NC(=O)[C@H](CCCNC(=N)N)NC(=O)[C@H](CCC(N)=O)NC(=O)[C@@H](NC(=O)[C@H](C)NC(=O)[C@@H]1CSSC[C@H](NC(=O)[C@@H](N)CCCCNC(=O)CC[C@H](NC(=O)CCCCCCCCCCCCCCCCCCC(=O)O)C(=O)O)C(=O)N[C@@H](CC(N)=O)C(=O)N[C@@H]([C@@H](C)O)C(=O)N[C@@H](C)C(=O)N[C@@H]([C@@H](C)O)C(=O)N1)[C@@H](C)O)C(=O)N1CCC[C@H]1C(=O)N[C@@H](CO)C(=O)N[C@@H](CO)C(=O)N[C@H](C(=O)N[C@@H](CC(N)=O)C(=O)N[C@H](C(=O)NCC(=O)N1CCC[C@H]1C(=O)N[C@@H](CCC(=O)O)C(=O)N[C@H](C(=O)N[C@@H](Cc1ccc(O)cc1)C(N)=O)[C@@H](C)O)C(C)C)[C@@H](C)O [Example 123] (H-K([γGlu-C20 diacid])CNTATCATQRLADFLRHSSPNFGAIPSSTNVGPETY-NH2; disulfide 2-7; N-terminus assumed) | 18600 pM | 300 pM | 62.0 | 62.0 | 196 pM | 16.7 | 16.7 | 16.7 | ≥ 200 µM | ≥ 200 µM | ≥ 200 µM | ≥ 200 µM | ≥ 200 µM | ≥ 200 µM | ≥ 200 µM | ≥ 200 µM | 62.0 | 16.7 | 16.7 | 16.7 | 
